Like-named read-outs stand apart in the source and are kept apart here. Strand notation (5' to 3'): a small letter for the sugar, then the base; units joined by * are phosphorothioate-linked, units joined directly phosphodiester-linked; [ ] holds rarer units or linkages, { } end groups; capitals alone tell only the bases. {MOP} = methoxy, phosphonate-4'-oxy on the 2'-O-methyluridine at position 1; m = 2'-O-methyl; f = 2'-fluoro
Assays:
[1] = system: HBV; assay type: in vivo; details: HDI mice; for circulating HBsAg / hepatic viral RNAs: entecavir 500 ng/kg PO daily for 14 days alone
Experimental: The RNAi oligonucleotides targeting the S antigen impact both the viral polymerase and HBsAg protein. In this study, the combinational effects of HBV(s)-219P2 as a monotherapy and combinational treatment with entecavir was explored in an HBV-expressing mouse (HDI model) for antiviral activity.
Mice were administered daily oral dosing of 500 ng/kg Entecavir (ETV) for 14 days. A single subcutaneous administration of HBV(s)-219P2 took place. Circulating viral load (HBV DNA) was measured by qPCR (FIG. 25A), plasma HBsAg level was measured by ELISA (FIG. 25B), and liver HBV mRNA and pgRNA levels were measured by qPCR.

[2] = system: HBV; assay: HBsAg levels in HDI-mice after subcutaneous oligonucleotide; assay type: in vivo
Source text: HBsAg levels were monitored in both oligonucleotide treated and untreated control mice for a period spanning 147 days.

[3] = system: HBV Genotype A S ORF target sites fused to reporter gene; assay: psiCHECK-2 dual-luciferase reporter mismatch assay in HeLa cells; assay type: cell-based
Source text: A psiCHECK-2 dual-luciferase reporter system was utilized to evaluate the effects of a mismatch at a selected position in each of HBV-217, HBV-219, HBV-254, HBV-255, and HBV-258. The psiCHECK vector enables monitoring of changes in expression of a target gene fused to a reporter gene, where active RNAi degrades the fusion construct to produce a corresponding decrease in reporter signal. The diagram in FIG. 16 generically depicts the vector utilized in these assays. The parent partial reporter sequence contained 120 base-pair fragments from Genotype A (GenBank: AM282986.1) around target sites of interest in the S ORF. […]
The psiCHECK2 reporter assays with each oligonucleotide were conducted over a three-day period using a 6-point, 5-fold serial dilution starting at 1 nM transfected in HeLa cells. […] The cells were then incubated at 37° C. in a CO2 incubator until the cells were ready to harvest and assay for the target gene. On day 3, 100 μL of Dual-Glo Reagent was added to each well, mixed and incubated for 10 minutes before reading the luminescence. A further 100 μL of Dual-Glo Stop & Glo was added to each well, mixed and incubated for 10 minutes before reading the luminescence. […] The EC50s values determined for each oligonucleotide are shown in Table 15 with additional specifications.

Row | Molecule | mean decrease in HBV DNA detected in plasma relative to PBS ([1]; entecavir 500 ng/kg PO daily for 14 days) | circulating HBsAg [1] | hepatic viral RNAs [1] | circulating HBsAg ([1]; listed as entecavir) | hepatic viral RNAs ([1]; listed as entecavir) | HBsAg levels ([2]; HDI-mice, single subcutaneous dose evaluation) | HBsAg levels ([2]; mice, QW×3, 3 mg/kg subcutaneous, monitored 147 days) | EC50 ([3]; mismatch duplex, single mismatch to reporter plasmid, read-out: MM EC50s) | EC50 ([3]; parent duplex, 100% homology to reporter plasmid, read-out: Parent EC50s)
1 | C=C1[C@H](CO)[C@@H](O)C[C@@H]1n1cnc2c(=O)[nH]c(N)nc21 [Entecavir] | ~1.6 log | no efficacy | no efficacy | No significant decrease | No significant decrease |  |  |  | 
2 | HBV-254: HBsAg-targeting duplex oligonucleotide, sense SEQ ID NO: 55, antisense SEQ ID NO: 56 (sense GUGGUGGACUUCUCUCAAUAGCAGCCGAAAGGCUGC; antisense {MOP}-mU*fA*fU*mUfGmAfGfAmGfAmAfGmUfCmCfAmCmCfAmC*mG*mG; sense: chemistry not given here; tetraloop form) |  |  |  |  |  | systematically reduced HBsAg levels in mice with increasing dosage | Diminished HBsAg levels persisted in treated mice throughout the entirety of the study | 0.096 nM | 0.037 nM

— US20230123601A1, “PHARMACEUTICAL COMBINATION OF ANTIVIRAL AGENTS TARGETING HBV AND/OR AN IMMUNE MODULATOR FOR TREATMENT OF HBV” (priority 2019, published 2023)
